Assay results as given in patent US20080039422A1, “Vitamin B12-Containing Compositions and Methods of Use” (Transition Therapeutics Inc., priority 2004, published 2008).

Key:
[1] = reported, cited from earlier work
[2] = Drug substance properties; assay type: physicochemical; conditions: 10 mg/ml aqueous solution
Experimental: Cyanocobalamin (CN-Cbl) is a cobalt containing vitamin and is reported to be sparingly soluble in water in the order of 1:80 or ˜12.5 mg/ml (Merck Index 1996). […] The material appears as dark red crystals or as an amorphous or crystalline red powder. It has a melting point of 300° C. and a molecular weight of 1355.38. The pH of a 10 mg/ml aqueous solution is 5.02.

[3] = CN-Cbl concentration in excipient solutions after challenge, mixing and heating; assay type: physicochemical
Experimental: The experiments conducted in this series feature cyanocobalamin (CN-Cbl). Varying amounts of CN-Cbl were added to various excipients, including water alone, water with one other agent (e.g., ethanol) and water with two other agents (e.g., ethanol and propylene glycol). The stability was tested after varying amounts of time, and following procedures in which the vitamin B12 compound and its excipient were combined by vigorous mixing and heated.
More specifically, for each excipient condition, CN-Cbl was weighed into an Eppendorf tube, and an appropriate volume of excipient solution was added to achieve the “challenge” concentration in a total volume of ˜0.4-0.7 ml. The tube was then vortexed before being heated to 60° C. for two hours, with additional mixing by vortexing carried out for 5-10 seconds every 5-10 minutes.
Following the mixing and heating procedure described above, the tubes were cooled to room temperature (RT) and left at room temperature for 1-2 hours. Before measuring the concentration of CN-Cbl, the solutions were clarified by centrifugation for ten minutes at rcf 16,100. […] Cyanocobalamin and cyanocobalamin-containing solutions were protected from light (by being kept covered with foil) as much as practicable.
In one study, CN-Cbl was combined with excipients containing propylene glycol, ethanol, PEG 300, or glycerol so that the final maximum concentration of CN-Cbl could be as high as 100 mg/ml. The amount of each excipient was also varied from 5-80% (however, not all possible variants were tested). […] The concentration of CN-Cbl to be solubilized (the “challenge”) in each case was 100 mg/ml of CN-Cbl, and the concentration of each of the excipients varied from 5% to 80% in water. […] The concentrations of CN-Cbl in other excipients were even greater. For example, the concentration of CN-Cbl in solutions containing 40 or 50% PEG 300 was about 45 mg/ml; the concentration in 15% ethanol was about 35 mg/ml; the concentration in 20% ethanol was about 52 mg/ml; and the concentrations in propylene glycol at any concentration over 30% was more than 85 mg/ml (see Table 1).
In other studies, combinations were tested of ethanol and propylene glycol or of ethanol and PEG 300. Tables 2A-2D are tables showing the concentrations of cyanocobalamin (CN-Cbl; mg/ml) in combinations of excipients. […] The concentrations of ethanol ranged from 0-20% and the concentrations of propylene glycol ranged from 0 to 60%. […] In Table 2C, the amount of propylene glycol and the amount of CN-Cbl (the “challenge”) varied. The excipient contained 20% ethanol and 0-40% propylene glycol, and the amount of CN-Cbl challenge added varied from 50-200 mg/ml. Table 2D reports final concentrations of CN-Cbl when excipients containing varying amounts of propylene glycol and ethanol were challenged with 400 mg/ml CN-Cbl.

Which results are given for cyanocobalamin [CN-Cbl]?
hygroscopicity ([1]; anhydrous form): very hygroscopic; solubility in water ([1]; 1:80 (Merck Index 1996)): ~12.5 mg/mL; pH of aqueous solution [2]: 5.02; final concentration of CN-Cbl ([3]; challenge 50 mg/ml, 20% ethanol and 0-40% propylene glycol): about 50 mg/ml; concentration of CN-Cbl ([3]; challenge 100 mg/mL, Ethanol 10.0% (v/v)): 29400 µg/mL; concentration of CN-Cbl ([3]; challenge 100 mg/mL, Glycerol 10.0% (v/v)): 18200 µg/mL; concentration of CN-Cbl ([3]; challenge 100 mg/mL, Glycerol 15.0% (v/v)): 19400 µg/mL; concentration of CN-Cbl ([3]; challenge 100 mg/mL, Glycerol 20.0% (v/v)): 21500 µg/mL; concentration of CN-Cbl ([3]; challenge 100 mg/mL, H2O): 14100 µg/mL; concentration of CN-Cbl ([3]; challenge 100 mg/mL, PEG 300 10.0% (v/v)): 24100 µg/mL; concentration of CN-Cbl ([3]; challenge 100 mg/mL, PEG 300 20.0% (v/v)): 34400 µg/mL; concentration of CN-Cbl ([3]; challenge 100 mg/mL, PEG 300 30.0% (v/v)): 40500 µg/mL; concentration of CN-Cbl ([3]; challenge 100 mg/mL, Propylene Glycol 10.0% (v/v)): 28100 µg/mL; concentration of CN-Cbl ([3]; challenge 100 mg/mL, Propylene Glycol 20.0% (v/v)): 41800 µg/mL; concentration of CN-Cbl ([3]; challenge 100 mg/mL, Propylene Glycol 30.0% (v/v)): 95300 µg/mL; concentration of CN-Cbl ([3]; challenge 100 mg/mL, Propylene Glycol 40.0% (v/v)): 95100 µg/mL; concentration of CN-Cbl ([3]; challenge 100 mg/mL, Propylene Glycol 50.0% (v/v)): 95100 µg/mL; concentration of CN-Cbl ([3]; challenge 100 mg/mL, Propylene Glycol 60.0% (v/v)): 95100 µg/mL; concentration of CN-Cbl ([3]; challenge 100 mg/mL, Propylene Glycol 70.0% (v/v)): 85300 µg/mL; concentration of CN-Cbl ([3]; challenge 100 mg/mL, Propylene Glycol 80% (v/v)): 90100 µg/mL; final concentration of CN-Cbl ([3]; challenge 100 mg/ml, 20% ethanol and 0-40% propylene glycol): about 100 mg/ml; concentration of CN-Cbl ([3]; challenge 100 mg/ml, propylene glycol at any concentration over 30%): more than 85 mg/ml; final concentration of CN-Cbl ([3]; challenge 175 mg/ml, 20% ethanol and 20% propylene glycol): about 177 mg/ml; concentration of CN-Cbl ([3]; challenge 200 mg/ml, PEG 300 40%, ethanol 5%): 77000 µg/mL; concentration of CN-Cbl ([3]; challenge 200 mg/ml, PEG 300 40%, ethanol 10%): 44400 µg/mL; concentration of CN-Cbl ([3]; challenge 200 mg/ml, PEG 300 40%, ethanol 15%): 62500 µg/mL; concentration of CN-Cbl ([3]; challenge 200 mg/ml, PG 0%, ethanol 0%): 17500 µg/mL; concentration of CN-Cbl ([3]; challenge 200 mg/ml, PG 0%, ethanol 5%): 22500 µg/mL; concentration of CN-Cbl ([3]; challenge 200 mg/ml, PG 0%, ethanol 10%): 28500 µg/mL; concentration of CN-Cbl ([3]; challenge 200 mg/ml, PG 0%, ethanol 15%): 27700 µg/mL; concentration of CN-Cbl ([3]; challenge 200 mg/ml, PG 0%, ethanol 20%): 176000 µg/mL; concentration of CN-Cbl ([3]; challenge 200 mg/ml, PG 20%, ethanol 0%): 31300 µg/mL; concentration of CN-Cbl ([3]; challenge 200 mg/ml, PG 20%, ethanol 5%): 34400 µg/mL; concentration of CN-Cbl ([3]; challenge 200 mg/ml, PG 20%, ethanol 10%): 55600 µg/mL; concentration of CN-Cbl ([3]; challenge 200 mg/ml, PG 20%, ethanol 15%): 182500 µg/mL; concentration of CN-Cbl ([3]; challenge 200 mg/ml, PG 20%, ethanol 20%): 177500 µg/mL; concentration of CN-Cbl ([3]; challenge 200 mg/ml, PG 30%, ethanol 0%): 35900 µg/mL; concentration of CN-Cbl ([3]; challenge 200 mg/ml, PG 30%, ethanol 5%): 64800 µg/mL; concentration of CN-Cbl ([3]; challenge 200 mg/ml, PG 30%, ethanol 15%): 150500 µg/mL; concentration of CN-Cbl ([3]; challenge 200 mg/ml, PG 30%, ethanol 20%): 180200 µg/mL; concentration of CN-Cbl ([3]; challenge 200 mg/ml, PG 40%, ethanol 0%): 172500 µg/mL; concentration of CN-Cbl ([3]; challenge 200 mg/ml, PG 40%, ethanol 5%): 177100 µg/mL; concentration of CN-Cbl ([3]; challenge 200 mg/ml, PG 40%, ethanol 10%): 184400 µg/mL; concentration of CN-Cbl ([3]; challenge 200 mg/ml, PG 40%, ethanol 20%): 186000 µg/mL; concentration of CN-Cbl ([3]; challenge 200 mg/ml, PG 50%, ethanol 0%): 145100 µg/mL; concentration of CN-Cbl ([3]; challenge 200 mg/ml, PG 50%, ethanol 5%): 179400 µg/mL; concentration of CN-Cbl ([3]; challenge 200 mg/ml, PG 50%, ethanol 10%): 190200 µg/mL; concentration of CN-Cbl ([3]; challenge 200 mg/ml, PG 50%, ethanol 15%): 179400 µg/mL; concentration of CN-Cbl ([3]; challenge 200 mg/ml, PG 50%, ethanol 20%): 187900 µg/mL; concentration of CN-Cbl ([3]; challenge 200 mg/ml, PG 60%, ethanol 0%): 185200 µg/mL; concentration of CN-Cbl ([3]; challenge 200 mg/ml, PG 60%, ethanol 5%): 184800 µg/mL; concentration of CN-Cbl ([3]; challenge 200 mg/ml, PG 60%, ethanol 10%): 186800 µg/mL; concentration of CN-Cbl ([3]; challenge 200 mg/ml, PG 60%, ethanol 15%): 186400 µg/mL; concentration of CN-Cbl ([3]; challenge 200 mg/ml, PG 60%, ethanol 20%): 196000 µg/mL; concentration of CN-Cbl ([3]; control experiments: water, challenged with 200 mg/ml): about 20 mg/ml; CN-Cbl solubilized ([3]; water, regardless of the amount of the challenge (50-200 mg/ml)): no more than 30 mg/ml
